This is an account of results in article PMC9116130 (Biochemical pharmacology, 2020).

Like-named read-outs stand apart in the source and are kept apart here. Where a SMILES comes first, the peptide text is derived from it. Bridges are numbered along the chain shown (N, C = ends).

The target of one data set is rNaV1.8 (Rattus norvegicus, UniProt Q62968). Kind of data set: Two-electrode voltage-clamp on Xenopus laevis oocytes expressing NaV1.8. The note with it: for inhibition at 100 µM: read-out: Maximum % inhibition NaV1.8. (In general: In two-electrode clamp one electrode senses voltage and the other passes current.)
Another data set has as its target rNaV1.7 (Rattus norvegicus, UniProt O08562). Put plainly: Two-electrode voltage-clamp on Xenopus laevis oocytes expressing NaV1.7.
The target of the next data set is rNaV1.4 (Rattus norvegicus, UniProt P15390). Kind of data set: Two-electrode voltage-clamp on Xenopus laevis oocytes expressing NaV1.4. The note with it: for inhibition at 100 µM: read-out: Maximum % inhibition NaV1.4, peptide at 100 μM.
Another data set addresses rNaV1.2 (Rattus norvegicus, UniProt P04775). Put plainly: Two-electrode voltage-clamp on Xenopus laevis oocytes expressing NaV1.2. To be noted: for inhibition at 100 µM: read-out: Maximum % inhibition NaV1.2, peptide at 100 μM.
Another data set deals with hNaV1.1 (Homo sapiens, UniProt P35498). Kind of data set: Two-electrode voltage-clamp on Xenopus laevis oocytes expressing NaV1.1.
For another data set, the target named is mNaV1.6 (Mus musculus, UniProt Q9WTU3). Kind of data set: Two-electrode voltage-clamp on Xenopus laevis oocytes expressing NaV1.6. The note with it: for inhibition at 100 µM: read-out: Maximum % inhibition NaV1.6, peptide at 100 μM.
For a further data set, the target named is hNaV1.5 (Homo sapiens, UniProt Q14524). Kind of data set: Two-electrode voltage-clamp on Xenopus laevis oocytes expressing NaV1.5. To be noted: for inhibition at 100 µM: read-out: Maximum % inhibition NaV1.5.
The target in a further data set is rNaV1.3 (Rattus norvegicus, UniProt P08104). Kind of data set: Two-electrode voltage-clamp on Xenopus laevis oocytes expressing NaV1.3.
Data set [1] relates to NaV1.2, NaV1.4, NaV1.5 and NaV1.6. To be noted: 100 μM.
The test system of a further data set is inflammatory pain models. The note with it: in vivo; cited from earlier work.

rNaV1.7, sequence (O08562 whole entry): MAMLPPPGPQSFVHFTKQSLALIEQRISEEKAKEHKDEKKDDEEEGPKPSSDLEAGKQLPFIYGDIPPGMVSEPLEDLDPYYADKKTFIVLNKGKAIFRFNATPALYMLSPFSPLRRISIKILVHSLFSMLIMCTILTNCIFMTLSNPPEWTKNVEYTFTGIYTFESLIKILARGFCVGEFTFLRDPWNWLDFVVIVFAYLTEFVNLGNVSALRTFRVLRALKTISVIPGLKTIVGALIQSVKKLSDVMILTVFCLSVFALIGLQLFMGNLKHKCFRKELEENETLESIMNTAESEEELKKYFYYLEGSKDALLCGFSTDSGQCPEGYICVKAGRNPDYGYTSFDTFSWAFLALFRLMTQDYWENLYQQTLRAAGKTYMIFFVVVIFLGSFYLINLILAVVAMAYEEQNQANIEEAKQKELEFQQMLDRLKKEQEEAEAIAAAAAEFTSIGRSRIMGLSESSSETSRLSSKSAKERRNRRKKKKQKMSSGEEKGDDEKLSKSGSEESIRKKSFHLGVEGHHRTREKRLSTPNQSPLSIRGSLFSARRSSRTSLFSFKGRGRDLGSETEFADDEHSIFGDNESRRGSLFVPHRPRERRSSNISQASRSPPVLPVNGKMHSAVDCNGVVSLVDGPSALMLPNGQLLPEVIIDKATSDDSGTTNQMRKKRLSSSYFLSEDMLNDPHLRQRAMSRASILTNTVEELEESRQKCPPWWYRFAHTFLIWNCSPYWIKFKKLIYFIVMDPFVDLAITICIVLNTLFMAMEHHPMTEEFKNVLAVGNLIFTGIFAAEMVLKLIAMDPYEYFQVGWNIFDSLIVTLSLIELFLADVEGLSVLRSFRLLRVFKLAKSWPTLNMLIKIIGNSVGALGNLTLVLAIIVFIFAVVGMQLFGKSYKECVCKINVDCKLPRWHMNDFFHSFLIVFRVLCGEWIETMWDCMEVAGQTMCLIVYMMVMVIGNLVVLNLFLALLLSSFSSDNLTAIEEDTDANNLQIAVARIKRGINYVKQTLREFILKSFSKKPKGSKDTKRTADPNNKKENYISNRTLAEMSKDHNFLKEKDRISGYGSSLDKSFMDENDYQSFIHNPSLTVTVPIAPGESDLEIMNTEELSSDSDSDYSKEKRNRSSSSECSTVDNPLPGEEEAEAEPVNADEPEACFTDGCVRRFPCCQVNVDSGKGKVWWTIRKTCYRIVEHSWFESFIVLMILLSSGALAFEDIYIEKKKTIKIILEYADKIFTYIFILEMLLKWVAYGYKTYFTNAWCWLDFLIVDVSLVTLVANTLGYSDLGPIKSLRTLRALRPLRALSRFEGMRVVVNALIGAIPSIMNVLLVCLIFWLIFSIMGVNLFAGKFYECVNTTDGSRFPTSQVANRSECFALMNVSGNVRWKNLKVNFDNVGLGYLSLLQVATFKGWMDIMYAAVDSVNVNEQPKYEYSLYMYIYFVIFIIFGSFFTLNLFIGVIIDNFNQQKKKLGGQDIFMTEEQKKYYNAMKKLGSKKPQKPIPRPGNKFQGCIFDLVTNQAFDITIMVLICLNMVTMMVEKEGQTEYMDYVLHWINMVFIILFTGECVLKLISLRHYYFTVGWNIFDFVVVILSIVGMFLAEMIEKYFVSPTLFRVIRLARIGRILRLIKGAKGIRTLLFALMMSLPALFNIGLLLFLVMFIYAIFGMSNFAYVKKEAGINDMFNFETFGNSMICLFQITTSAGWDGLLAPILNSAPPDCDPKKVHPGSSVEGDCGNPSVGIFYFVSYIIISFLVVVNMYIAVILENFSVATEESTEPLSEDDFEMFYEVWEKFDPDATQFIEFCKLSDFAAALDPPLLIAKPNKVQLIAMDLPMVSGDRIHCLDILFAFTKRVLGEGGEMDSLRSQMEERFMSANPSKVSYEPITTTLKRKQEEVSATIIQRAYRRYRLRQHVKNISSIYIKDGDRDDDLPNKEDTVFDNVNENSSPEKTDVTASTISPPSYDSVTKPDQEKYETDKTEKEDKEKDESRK
rNaV1.7, sequence (Q00954 19-218 partner): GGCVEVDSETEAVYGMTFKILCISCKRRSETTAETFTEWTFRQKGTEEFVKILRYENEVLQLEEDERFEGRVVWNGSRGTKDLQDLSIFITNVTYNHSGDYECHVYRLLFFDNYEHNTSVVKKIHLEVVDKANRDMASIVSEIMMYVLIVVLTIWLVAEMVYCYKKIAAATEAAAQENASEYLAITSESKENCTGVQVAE
mNaV1.6, sequence (Q9WTU3 whole entry): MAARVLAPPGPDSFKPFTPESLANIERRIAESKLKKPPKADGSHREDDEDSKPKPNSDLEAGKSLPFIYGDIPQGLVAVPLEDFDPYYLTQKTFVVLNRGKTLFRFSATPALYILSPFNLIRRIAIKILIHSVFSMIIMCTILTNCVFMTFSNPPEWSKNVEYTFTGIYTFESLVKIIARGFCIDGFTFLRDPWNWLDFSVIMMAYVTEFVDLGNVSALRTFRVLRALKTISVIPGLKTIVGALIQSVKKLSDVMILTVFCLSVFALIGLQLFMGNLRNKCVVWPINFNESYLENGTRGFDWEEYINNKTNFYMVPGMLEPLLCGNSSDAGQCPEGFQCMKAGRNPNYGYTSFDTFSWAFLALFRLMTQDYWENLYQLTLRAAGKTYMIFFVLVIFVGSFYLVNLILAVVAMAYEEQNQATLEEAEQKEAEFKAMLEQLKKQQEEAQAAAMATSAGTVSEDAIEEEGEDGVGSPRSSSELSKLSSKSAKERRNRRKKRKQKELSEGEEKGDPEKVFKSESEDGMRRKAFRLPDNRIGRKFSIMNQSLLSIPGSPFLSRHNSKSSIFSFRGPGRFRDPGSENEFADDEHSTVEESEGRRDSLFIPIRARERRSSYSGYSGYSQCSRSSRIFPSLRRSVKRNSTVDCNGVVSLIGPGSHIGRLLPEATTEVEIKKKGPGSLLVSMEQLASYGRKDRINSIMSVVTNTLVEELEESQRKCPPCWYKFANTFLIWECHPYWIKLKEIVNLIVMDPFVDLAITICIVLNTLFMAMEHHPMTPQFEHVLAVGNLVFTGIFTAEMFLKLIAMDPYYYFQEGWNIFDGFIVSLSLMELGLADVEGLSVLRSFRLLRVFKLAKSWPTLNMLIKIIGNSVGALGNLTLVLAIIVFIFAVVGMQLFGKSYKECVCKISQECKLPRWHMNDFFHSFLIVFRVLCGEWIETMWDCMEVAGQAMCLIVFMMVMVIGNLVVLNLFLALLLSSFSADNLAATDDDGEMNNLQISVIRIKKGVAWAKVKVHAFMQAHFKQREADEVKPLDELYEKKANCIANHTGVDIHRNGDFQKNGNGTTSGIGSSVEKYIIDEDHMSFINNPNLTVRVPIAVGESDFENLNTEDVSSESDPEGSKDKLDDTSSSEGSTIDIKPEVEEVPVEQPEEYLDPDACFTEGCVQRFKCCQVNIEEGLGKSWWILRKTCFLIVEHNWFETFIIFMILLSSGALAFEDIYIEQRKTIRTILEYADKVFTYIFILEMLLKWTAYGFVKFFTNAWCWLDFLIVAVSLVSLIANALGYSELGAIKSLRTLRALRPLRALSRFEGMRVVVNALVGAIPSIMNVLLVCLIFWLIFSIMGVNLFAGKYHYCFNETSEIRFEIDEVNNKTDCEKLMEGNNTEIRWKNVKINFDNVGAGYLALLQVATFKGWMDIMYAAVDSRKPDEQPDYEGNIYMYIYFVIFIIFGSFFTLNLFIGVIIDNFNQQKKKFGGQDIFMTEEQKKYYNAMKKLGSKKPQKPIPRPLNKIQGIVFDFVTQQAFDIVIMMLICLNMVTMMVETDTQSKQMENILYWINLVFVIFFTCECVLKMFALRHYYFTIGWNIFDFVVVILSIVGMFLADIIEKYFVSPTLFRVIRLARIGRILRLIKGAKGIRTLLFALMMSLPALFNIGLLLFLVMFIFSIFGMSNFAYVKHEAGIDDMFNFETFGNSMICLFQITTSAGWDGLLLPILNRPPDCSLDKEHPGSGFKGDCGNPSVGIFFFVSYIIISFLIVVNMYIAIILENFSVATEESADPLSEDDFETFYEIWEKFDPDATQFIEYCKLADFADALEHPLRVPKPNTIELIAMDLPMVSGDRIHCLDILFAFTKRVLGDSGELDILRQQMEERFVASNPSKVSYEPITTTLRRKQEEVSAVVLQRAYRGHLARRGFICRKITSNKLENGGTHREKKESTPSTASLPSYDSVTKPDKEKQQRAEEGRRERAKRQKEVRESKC

For the molecule `C[C@@H]1NC(=O)[C@H](Cc2c[nH]c3ccccc23)NC(=O)[C@H](CCCNC(=N)N)NC(=O)[C@H](CCCNC(=N)N)NC(=O)[C@@H](N)CSSC[C@@H](C(N)=O)NC(=O)[C@H](CCCNC(=N)N)NC(=O)[C@H](CC(N)=O)NC(=O)[C@H](Cc2c[nH]c3ccccc23)NC(=O)[C@H](CCCNC(=N)N)NC1=O` [PnCS1, CRRWARWNRC ^*] (H-CRRWARWNRC-NH2; disulfide 1-10), the IC50 (usually the concentration that inhibits the measured activity by half) on rNaV1.8 is more than 100 µM; on rNaV1.7, 0.9 ± 0.2 µM; against rNaV1.4, 0.6 ± 0.3 µM; on rNaV1.2 it was 1 ± 0.3 µM; at hNaV1.1, 0.8 ± 0.3 µM; at mNaV1.6 it was 0.7 ± 0.3 µM. The results for the IC50 at hNaV1.5 and on rNaV1.3 were 2.8 ± 0.5 µM and 1.1 ± 0.4 µM, respectively. Besides, the inhibition (usually the relative decrease from the control value, in per cent) at 100 µM on rNaV1.8 is 0%; at rNaV1.4, 94%; on rNaV1.2 it was 97%; at mNaV1.6 it was 96%; on hNaV1.5, 94%.

For `C[C@@H]1NC(=O)[C@H](Cc2c[nH]c3ccccc23)NC(=O)[C@H](CCCNC(=N)N)NC(=O)[C@H](CCCNC(=N)N)NC(=O)[C@@H](N)CSSC[C@@H](C(N)=O)NC(=O)[C@H](CCCNC(=N)N)NC(=O)[C@H](CC(N)=O)NC(=O)[C@H](Cc2ccc(O)cc2)NC(=O)[C@H](CCCNC(=N)N)NC1=O` [PnCS1[W7Y], CRRWARYNRC ^*] (H-CRRWARYNRC-NH2; disulfide 1-10), the IC50 at rNaV1.8 is more than 100 µM; against rNaV1.7 it was 8.2 ± 0.3 µM; at rNaV1.4, 7.8 ± 3.3 µM; against rNaV1.2, 7.4 ± 4.2 µM; at hNaV1.1, 2.2 ± 0.4 µM; against mNaV1.6 it was 0.7 ± 0.3 µM. Moreover, the concentration for half-maximal inhibition (IC50) against hNaV1.5 was determined as 11.7 ± 4.1 µM; at rNaV1.3, 4.1 ± 0.8 µM. Besides, the inhibition at 100 µM on rNaV1.8 was 0%; on rNaV1.4 it was 73%; on rNaV1.2, 76%; at mNaV1.6, 93%; on hNaV1.5, 75%. In addition, in data set [1], the “% inhibition, range across NaV1.2, NaV1.4, NaV1.5 and NaV1.6” value is on record as 73–93%.

With `C[C@@H]1NC(=O)[C@H](Cc2ccc(O)cc2)NC(=O)[C@H](CCCNC(=N)N)NC(=O)[C@H](CCCNC(=N)N)NC(=O)[C@@H](N)CSSC[C@@H](C(N)=O)NC(=O)[C@H](CCCNC(=N)N)NC(=O)[C@H](CC(N)=O)NC(=O)[C@H](Cc2c[nH]c3ccccc23)NC(=O)[C@H](CCCNC(=N)N)NC1=O` [PnCS1[W4Y], CRRYARWNRC ^*] (H-CRRYARWNRC-NH2; disulfide 1-10), the half-maximal inhibitory concentration (IC50) against rNaV1.8, on rNaV1.4, on rNaV1.2, against mNaV1.6 and against hNaV1.5 was more than 100 µM each time. The inhibition at 100 µM amounted to 0% at rNaV1.8; 33% at rNaV1.4; 39% at rNaV1.2; 42% on mNaV1.6; 43% on hNaV1.5. Moreover, the “% inhibition, range across NaV1.2, NaV1.4, NaV1.5 and NaV1.6” value in [1] is on record as 33–43%.

Regarding `C[C@@H]1NC(=O)[C@H](Cc2c[nH]c3ccccc23)NC(=O)[C@H](CCCNC(=N)N)NC(=O)[C@H](CCCNC(=N)N)NC(=O)[C@@H](N)CSSC[C@@H](C(N)=O)NC(=O)[C@H](CCCNC(=N)N)NC(=O)[C@H](CC(N)=O)NC(=O)[C@H](Cc2c[nH]c3ccccc23)NC(=O)[C@H](CCC(=O)O)NC1=O` [PnCS1[R6E], CRRWAEWNRC ^*] (H-CRRWAEWNRC-NH2; disulfide 1-10), the concentration for half-maximal inhibition (IC50) against rNaV1.8, against rNaV1.7, at rNaV1.4, on rNaV1.2, at hNaV1.1 and on mNaV1.6 was more than 100 µM each time. Also, the IC50 at mNaV1.6 (read-out: IC50 NaV1.6 (Table 4), n > 5, ±SD) was more than 100 µM; at hNaV1.5, more than 100 µM; against rNaV1.3, more than 100 µM. The inhibition at 100 µM was 0% on rNaV1.8; 0% at rNaV1.4; 49% at rNaV1.2; 41% at mNaV1.6; 19% on hNaV1.5.

In the case of `C[C@@H]1NC(=O)[C@H](CCCCN)NC(=O)[C@H](CCCNC(=N)N)NC(=O)[C@H](CCCNC(=N)N)NC(=O)[C@@H](N)CSSC[C@@H](C(N)=O)NC(=O)[C@H](CCCNC(=N)N)NC(=O)[C@H](CC(N)=O)NC(=O)[C@H](Cc2c[nH]c3ccccc23)NC(=O)[C@H](CCCNC(=N)N)NC1=O` [PnCS1[W4K], CRRKARWNRC ^*] (H-CRRKARWNRC-NH2; disulfide 1-10), the IC50 against rNaV1.8 was more than 100 µM; at rNaV1.7, 7.4 ± 0.5 µM; at rNaV1.4, 0.7 ± 0.4 µM; against rNaV1.2, 0.5 ± 0.4 µM; at hNaV1.1, 0.4 ± 0.2 µM; against mNaV1.6 it was 0.7 ± 0.4 µM. Further, the half-inhibitory concentration (IC50) came out at 2.7 ± 0.5 µM at hNaV1.5 and 1.3 ± 0.4 µM on rNaV1.3. The inhibition at 100 µM on rNaV1.8 is 0%; at rNaV1.4, 94%; at rNaV1.2, 75%; at mNaV1.6 it was 92%; on hNaV1.5, 89%.

In the case of μ-Conotoxin KIIIA [μ-KIIIA], in the data set with inflammatory pain models, the “analgesic activity in inflammatory pain models” value is “analgesic in inflammatory pain models without motor impairment”.

On to `C[C@@H]1NC(=O)[C@H](Cc2c[nH]c3ccccc23)NC(=O)[C@H](CCCNC(=N)N)NC(=O)[C@H](CCCNC(=N)N)NC(=O)[C@@H](N)CSSC[C@@H](C(N)=O)NC(=O)[C@H](CCCNC(=N)N)NC(=O)[C@H](CC(N)=O)NC(=O)[C@H](CCCCN)NC(=O)[C@H](CCCNC(=N)N)NC1=O` [PnCS1[W7K], CRRWARKNRC ^*] (H-CRRWARKNRC-NH2; disulfide 1-10), for which the IC50 on rNaV1.8 was more than 100 µM; at rNaV1.4, 1.7 ± 0.5 µM; against rNaV1.2 it was 2.8 ± 0.5 µM; on mNaV1.6 it was 8.2 ± 0.6 µM; against hNaV1.5 it was 3 ± 0.7 µM. Besides, the inhibition at 100 µM at rNaV1.8 is 0%; at rNaV1.4 it was 87%; at rNaV1.2, 71%; at mNaV1.6, 82%; at hNaV1.5 it was 90%.

Consider `C[C@@H]1NC(=O)[C@H](Cc2c[nH]c3ccccc23)NC(=O)[C@H](CCCNC(=N)N)NC(=O)[C@H](CCCCN)NC(=O)[C@@H](N)CSSC[C@@H](C(N)=O)NC(=O)[C@H](CCCNC(=N)N)NC(=O)[C@H](CC(N)=O)NC(=O)[C@H](Cc2c[nH]c3ccccc23)NC(=O)[C@H](CCCNC(=N)N)NC1=O` [PnCS1[R2K], CKRWARWNRC ^*] (H-CKRWARWNRC-NH2; disulfide 1-10), for which the half-inhibitory concentration (IC50) against rNaV1.8 was more than 100 µM; on rNaV1.4, 0.8 ± 0.3 µM; on rNaV1.2, 1.1 ± 0.5 µM; against mNaV1.6, 0.6 ± 0.2 µM; against hNaV1.5, 2.5 ± 0.5 µM. The inhibition at 100 µM at rNaV1.8 was 0%; on rNaV1.4, 93%; at rNaV1.2 it was 92%; on mNaV1.6, 85%; at hNaV1.5 it was 82%.
